Experimental data: PubChem BioAssay AID1918947 (Molecular Pharmacology Branch, DTP, NCI, 2023)
Where “and” joins values, the source holds several entries; their conditions need not be identical. Equal values may be shown once.

Tested on: A498 complex spheroid viability
Assay: Anticancer human tumor A498 cell line growth inhibition;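 further: spheroids exposed to agents for seven days before readout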;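 on viability, T/C: 100% = DMSO vehicle-treated spheroids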
Settings: for viability, T/C: stronger effect = lower value
Text: Multicellular complex tumor spheroid response to LSD1 Inhibitor Iadademstat in combination with a variety of drugs and investigational agents in selected tumor cell lines
The current study was undertaken to assess response to LSD1 inhibitors in combination with standard-of-care drugs and investigational agents in solid tumor complex spheroid models as well as in the K-562 leukemia. Complex spheroids include a stromal component modeled by human endothelial cells (HUVEC) and fibroblasts modeled by human mesenchymal stem cells (MSCs). The concentration ranges selected for each drug and investigational agent were based upon clinically achievable concentrations if the clinical Cmax of the agent was known.
Compounds. The drugs and investigational agents used in this study are listed on Table 1. All of the agents used, including staurosporine (NSC755774) and gemcitabine (NSC613327), were obtained from the Developmental Therapeutics Program, NCI. FDA-approved anticancer drugs are available from the NCI at http://dtp.nci.nih.gov/branches/dscb/oncology_drugset_explanation.html. Drugs and investigational agents were >95% pure by proton nuclear magnetic resonance (NMR) and liquid chromatography/mass spectrometry (LC/MS). Stock solutions were prepared at 400x in DMSO, stored at -70 degrees C, and diluted in fresh medium prior to their use. The final concentration of DMSO in cell culture wells never exceeded 0.25% (v/v). The FDA-approved anticancer drug set is available from the Developmental Therapeutics Program at https://dtp.cancer.gov/organization/dscb/obtaining/available_plates.htm. All drugs and investigational agents were tested over a range starting from a high concentration at or near the clinical Cmax and decreasing in half-log increments. If the clinical Cmax for an agent had not been determined, the highest concentration tested was 10 microM.
Cell Lines. The patient-derived cancer cell (PDC) lines: 292921-168-R-J2-PDC, K24384-001-R-PDC, and 521955-158-R2-J5-PDC pancreatic carcinomas, 556581-035-R-J1 ovarian carcinoma, 324938-238-R-J1-PDC, 855422-203-R-J1-PDC and 883617-216-R-J1-PDC urothelial bladder carcinomas, 743489-274-T-PDC renal cell carcinoma, 138582-R-J1 Merkel cell tumor, K60290-347-R-J1 and K57222-313-R-J1-PDC glioblastomas, 653999-131-R-J2-PDC, LG0703-F948-PDC, and 349418-098-R-PDC non-small cell lung carcinomas, 885512-296-R-J2-PDC, 171881-019-R-J1-PDC breast carcinomas and 186277-243-T-J2-PDC and 233499-124-R-J2-PDC colon carcinomas were obtained from the NCI Patient-Derived Models Repository (PDMR, https://pdmr.cancer.gov). The established cell lines NCI/ADR-RES (RRID:CVCL_14520 and OVCAR-5 (RRID:CVCL_1628) ovarian carcinomas, 786-O (RRID:CVCL_1051) and A498 (RRID:CVCL_A498) renal cell carcinoma, NCI-H211 (ATCC, cat. CRL-5824; RRID:CVCL_1529), NCI-H196 (ATCC, cat. CRL-5823, RRID:CVCL_1509), SW 1271 (ATCC, cat. CRL-2177, RRID:CVCL_1716) and NCI-H1876 (ATCC, cat. CRL-5902, RRID:CVCL_1503) small cell lung carcinomas, MDA-MB-231 (RRID:CVCL_0062) and MDA-MB-468 (RRID:CVCL_0419)breast carcinomas (10-12). Pooled donor human umbilical vein endothelial cells (HUVEC, Lonza, cat. CC-2519) and human mesenchymal stem cells (hMSC, Lonza, cat. PT-2501) were purchased from Lonza (Walkersville, MD).
Cell Culture. All cells were maintained in an incubator at 37 degrees C and 5% CO2 with 95% humidity. The PDC lines were cultured according to standard operating procedures established by the NCI PDMR (https://pdmr.cancer.gov). Briefly all PDCs were thawed and cultured in Matrigel-coated flasks prepared with a working solution of 1X Ham's F-12 nutrient mix, without supplementation (Invitrogen, Waltham, MA, cat. 11765054), 100 U/mL penicillin-streptomycin (Invitrogen, cat. 15140122), and 2.5% Matrigel (Corning Inc., Corning, NY, cat. 354248) for the first three passages. […]

[1] = curve of first compound, second compound 0.1 µM
[2] = curve of first compound, second compound 0.316 µM
[3] = curve of first compound, second compound 1 µM
[4] = curve of first compound, second compound 3.16 µM
[5] = curve of first compound, second compound 10 µM

Q: With `O=C(C=Cn1cnc(-c2cc(C(F)(F)F)cc(C(F)(F)F)c2)n1)NNc1cnccn1` as the compound, how does the viability, T/C (compound 0.00316 µM) read?
A: The viability, T/C was 71.3% and 66.5%.

Q: And the viability, T/C (compound 0.01 µM)?
A: Its viability, T/C is 42.9% and 36.6%.

Q: What about the viability, T/C (compound 0.0316 µM) of the same compound?
A: The viability, T/C was 32.5% and 31.3%.

Q: What about the viability, T/C (compound 0.1 µM) of the same compound?
A: The viability, T/C was 29.1% and 26.8%.

Q: What about the viability, T/C (compound 0.316 µM) of the same compound?
A: The viability, T/C was 25.6% and 26.2%.

Q: And the viability, T/C (compound 1 µM)?
A: The viability, T/C was 22.2% and 17.3%.

Q: And the IC50 (curve of compound)?
A: Its IC50 is 7.74 nM and 6.34 nM.

Q: How did the IC50 [1] turn out when `COc1cc(Nc2ncc3c(n2)-c2ccc(Cl)cc2C(c2c(F)cccc2OC)=NC3)ccc1C(=O)O` + NC1CCC(NC2CC2c2ccccc2)CC1 was run?
A: Its IC50 is 256 nM.

Q: What about the IC50 [2] of the same compound?
A: Its IC50 is 454 nM.

Q: What about the IC50 [3] of the same compound?
A: Its IC50 is 415 nM.

Q: What about the IC50 [4] of the same compound?
A: The IC50 was 291 nM.

Q: And the IC50 [5]?
A: Its IC50 is 523 nM.

Q: And the viability, T/C (second compound 0.1 µM, first compound 0.00316 µM)?
A: Its viability, T/C is 86.1%.

Q: And the viability, T/C (second compound 0.1 µM, first compound 0.01 µM)?
A: Its viability, T/C is 72.4%.

Q: What about the viability, T/C (second compound 0.1 µM, first compound 0.0316 µM) of the same compound?
A: The viability, T/C was 66.2%.

Q: What about the viability, T/C (second compound 0.1 µM, first compound 0.1 µM) of the same compound?
A: The viability, T/C was 56%.

Q: And the viability, T/C (second compound 0.1 µM, first compound 0.316 µM)?
A: The viability, T/C was 47.7%.

Q: What about the viability, T/C (second compound 0.1 µM, first compound 1 µM) of the same compound?
A: The viability, T/C was 43.2%.

Q: And the viability, T/C (second compound 0.316 µM, first compound 0.00316 µM)?
A: The viability, T/C was 89.6%.

Q: And the viability, T/C (second compound 0.316 µM, first compound 0.01 µM)?
A: Its viability, T/C is 80.1%.

Q: And the viability, T/C (second compound 0.316 µM, first compound 0.0316 µM)?
A: Its viability, T/C is 74.5%.

Q: What about the viability, T/C (second compound 0.316 µM, first compound 0.1 µM) of the same compound?
A: The viability, T/C was 63%.

Q: What about the viability, T/C (second compound 0.316 µM, first compound 0.316 µM) of the same compound?
A: The viability, T/C was 50.5%.

Q: And the viability, T/C (second compound 0.316 µM, first compound 1 µM)?
A: The viability, T/C was 45.9%.

Q: And the viability, T/C (second compound 1 µM, first compound 0.00316 µM)?
A: Its viability, T/C is 80.2%.

Q: What about the viability, T/C (second compound 1 µM, first compound 0.01 µM) of the same compound?
A: Its viability, T/C is 78.3%.

Q: What about the viability, T/C (second compound 1 µM, first compound 0.0316 µM) of the same compound?
A: Its viability, T/C is 73.4%.

Q: And the viability, T/C (second compound 1 µM, first compound 0.1 µM)?
A: Its viability, T/C is 55.5%.

Q: And the viability, T/C (second compound 1 µM, first compound 0.316 µM)?
A: The viability, T/C was 57.1%.

Q: And the viability, T/C (second compound 1 µM, first compound 1 µM)?
A: The viability, T/C was 40.9%.

Q: And the viability, T/C (second compound 3.16 µM, first compound 0.00316 µM)?
A: The viability, T/C was 83.1%.

Q: And the viability, T/C (second compound 3.16 µM, first compound 0.01 µM)?
A: The viability, T/C was 70%.

Q: What about the viability, T/C (second compound 3.16 µM, first compound 0.0316 µM) of the same compound?
A: The viability, T/C was 73.1%.

Q: And the viability, T/C (second compound 3.16 µM, first compound 0.1 µM)?
A: Its viability, T/C is 55.1%.

Q: What about the viability, T/C (second compound 3.16 µM, first compound 0.316 µM) of the same compound?
A: Its viability, T/C is 51%.

Q: What about the viability, T/C (second compound 3.16 µM, first compound 1 µM) of the same compound?
A: The viability, T/C was 39.1%.

Q: What about the viability, T/C (second compound 10 µM, first compound 0.00316 µM) of the same compound?
A: The viability, T/C was 73%.

Q: What about the viability, T/C (second compound 10 µM, first compound 0.01 µM) of the same compound?
A: Its viability, T/C is 64.3%.

Q: And the viability, T/C (second compound 10 µM, first compound 0.0316 µM)?
A: The viability, T/C was 72.3%.

Q: What about the viability, T/C (second compound 10 µM, first compound 0.1 µM) of the same compound?
A: Its viability, T/C is 61.5%.

Q: And the viability, T/C (second compound 10 µM, first compound 0.316 µM)?
A: The viability, T/C was 56.8%.

Q: And the viability, T/C (second compound 10 µM, first compound 1 µM)?
A: The viability, T/C was 42.1%.

Q: What does the source list for `NS(=O)(=O)OCC1CC(n2ccc3c(NC4CCc5ccccc54)ncnc32)CC1O` (stereo unspecified)?
A: viability, T/C (compound 0.00949 µM): 81% and 90.7%; viability, T/C (compound 0.03 µM): 57.2% and 60.5%; viability, T/C (compound 0.0949 µM): 27.1% and 30.7%; viability, T/C (compound 0.3 µM): 18.4% and 21.2%; viability, T/C (compound 0.949 µM): 12.2% and 15.6%; viability, T/C (compound 3 µM): 9.37% and 11.7%; IC50 (curve of compound): 39.2 nM and 45.3 nM

Q: How did the viability, T/C (compound 0.00949 µM) turn out when `CCN(c1cc(-c2ccc(CN3CCOCC3)cc2)cc(C(=O)NCc2c(C)cc(C)[nH]c2=O)c1C)C1CCOCC1` was run?
A: Its viability, T/C is 98.7% and 101%.

Q: What about the viability, T/C (compound 0.03 µM) of the same compound?
A: Its viability, T/C is 108% and 107%.

Q: What about the viability, T/C (compound 0.0949 µM) of the same compound?
A: The viability, T/C was 98.7% and 102%.

Q: And the viability, T/C (compound 0.3 µM)?
A: Its viability, T/C is 103%.

Q: What about the viability, T/C (compound 0.949 µM) of the same compound?
A: The viability, T/C was 107% and 105%.

Q: What about the viability, T/C (compound 3 µM) of the same compound?
A: The viability, T/C was 112% and 113%.

Q: What about the IC50 (curve of compound) of the same compound?
A: Its IC50 is > 3000 nM.

Q: What does the source list for `NS(=O)(=O)OCC1CC(n2ccc3c(NC4CCc5ccccc54)ncnc32)CC1O` (stereo unspecified) + NC1CC1c1ccc(-c2cccc(O)c2)cc1?
A: IC50 [1]: 57.2 nM; IC50 [2]: 71 nM; IC50 [3]: 78.6 nM; IC50 [4]: 76.4 nM; IC50 [5]: 46.3 nM; viability, T/C (second compound 0.1 µM, first compound 0.00949 µM): 99%; viability, T/C (second compound 0.1 µM, first compound 0.03 µM): 70.4%; viability, T/C (second compound 0.1 µM, first compound 0.0949 µM): 32.4%; viability, T/C (second compound 0.1 µM, first compound 0.3 µM): 23.4%; viability, T/C (second compound 0.1 µM, first compound 0.949 µM): 15.9%; viability, T/C (second compound 0.1 µM, first compound 3 µM): 12.4%; viability, T/C (second compound 0.316 µM, first compound 0.00949 µM): 100%; viability, T/C (second compound 0.316 µM, first compound 0.03 µM): 78.5%; viability, T/C (second compound 0.316 µM, first compound 0.0949 µM): 39.6%; viability, T/C (second compound 0.316 µM, first compound 0.3 µM): 21.4%; viability, T/C (second compound 0.316 µM, first compound 0.949 µM): 15.6%; viability, T/C (second compound 0.316 µM, first compound 3 µM): 12%; viability, T/C (second compound 1 µM, first compound 0.00949 µM): 96.2%; viability, T/C (second compound 1 µM, first compound 0.03 µM): 83.2%; viability, T/C (second compound 1 µM, first compound 0.0949 µM): 41.1%; viability, T/C (second compound 1 µM, first compound 0.3 µM): 25.9%; viability, T/C (second compound 1 µM, first compound 0.949 µM): 16.1%; viability, T/C (second compound 1 µM, first compound 3 µM): 12.8%; viability, T/C (second compound 3.16 µM, first compound 0.00949 µM): 101%; viability, T/C (second compound 3.16 µM, first compound 0.03 µM): 73.7%; viability, T/C (second compound 3.16 µM, first compound 0.0949 µM): 43.5%; viability, T/C (second compound 3.16 µM, first compound 0.3 µM): 27.7%; viability, T/C (second compound 3.16 µM, first compound 0.949 µM): 19%; viability, T/C (second compound 3.16 µM, first compound 3 µM): 14.9%; viability, T/C (second compound 10 µM, first compound 0.00949 µM): 90.8%; viability, T/C (second compound 10 µM, first compound 0.03 µM): 53.2%; viability, T/C (second compound 10 µM, first compound 0.0949 µM): 40.3%; viability, T/C (second compound 10 µM, first compound 0.3 µM): 29.9%; viability, T/C (second compound 10 µM, first compound 0.949 µM): 18.4%; viability, T/C (second compound 10 µM, first compound 3 µM): 15%
